Experimental findings from the supplement of paper PMC11368000 are described below.

The first assay has as its system 1516 (donor line of iPSC-derived cardiomyocytes). Put plainly: POD (EC95) for loss of peak frequency (asystole) vs vehicle; higher = less potent (higher point of departure). The settings on record: exposure time: 90 min. On the procedure:
(§1)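 Human iPSC-derived cardiomyocytes from 16 donors were exposed for 90 min at 37 °C to each PFAS at 0.1, 1, 10 and 100 µM in 0.5% DMSO, 384-well plates. Kinetic Ca2+ flux (FLIPR) and Hoechst nuclei counts were normalised to vehicle wells and fitted with a hierarchical Bayesian Hill model to give donor-specific PODs: EC05 for beat-rate increase or decrease and for decay-to-rise ratio increase (QT proxy), EC95 for peak-frequency loss (asystole), EC10 for total cell number loss. 0.03 µM is the lower bound.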
Regarding `CN(CCO)S(=O)(=O)C(F)(F)C(F)(F)C(F)(F)C(F)(F)C(F)(F)C(F)(F)C(F)(F)C(F)(F)F` [N-Methyl-N-(2-hydroxyethyl)perfluorooctanesulfonamide], the POD vs vehicle is more than 100 µM.

For the next assay, the system named is 30145 (donor line of iPSC-derived cardiomyocytes). The description is as above. The settings on record: exposure time: 90 min. On the procedure:
as §1
For `NC(=O)C(F)(F)C(F)(F)C(F)(F)C(F)F`, the POD vs vehicle was more than 100 µM.
Still for that read-out and setting: as for `OCC(O)CC(F)(F)C(F)(F)C(F)(F)C(F)(F)C(F)(F)C(F)(F)C(F)(F)C(F)(F)F` (stereo not given) [1-(Perfluorofluorooctyl)propane-2,3-diol], the figure is more than 100 µM; as for `CC(O)C(F)(F)C(F)(F)F` (stereo not given) [1-Pentafluoroethylethanol], more than 100 µM.
Same read-out and setting: to `OCC(F)(F)C(F)(F)C(F)(F)C(F)F` [1H,1H,5H-Perfluoropentanol] belongs more than 100 µM.
Still for that read-out and setting: as for `O=S(=O)(OCC(F)(F)F)C(F)(F)C(F)(F)C(F)(F)C(F)(F)F` [2,2,2-Trifluoroethyl_perfluorobutanesulfonate], the figure is more than 100 µM.
Consider `O=C(O)C(F)(F)C(F)(F)C(F)F` [2,2,3,3,4,4-Hexafluorobutanoic_acid], for which the POD vs vehicle is more than 100 µM.
`NC(O)(C(F)(F)F)C(F)(F)F` [2-Aminohexafluoropropan-2-ol] showed a POD vs vehicle of more than 100 µM.
For the molecule `O=C(O)CCC(F)(F)C(F)(F)C(F)(F)C(F)(F)C(F)(F)F` [2H,2H,3H,3H-Perfluorooctanoic_acid], the POD vs vehicle was 77.8 µM.
On the same count and under the same terms, to `O=C(O)C=C(C(F)(F)F)C(F)(F)F` [3,3-Bis(trifluoromethyl)-2-propenoic_acid] belongs more than 100 µM; to `O=C(O)C=CC(F)(C(F)(F)F)C(F)(F)F` [3-(Perfluoroisopropyl)-2-propenoic_acid], more than 100 µM.
On to `O=C(O)CCC(F)(F)C(F)(F)C(F)(F)C(F)(F)C(F)(F)C(F)(F)C(F)(F)F` [3-Perfluoroheptylpropanoic_acid], for which the POD vs vehicle is more than 100 µM.
`O=C(O)CCC(F)(F)C(F)(F)C(F)(F)F` [3:3 Fluorotelomer carboxylic acid] gave a POD vs vehicle of more than 100 µM.
The same measure, in the same setting: to `O=C(CC(=O)C(F)(F)C(F)(F)F)C(F)(F)F` [3H,3H-Perfluoro-2,4-hexanedione] belongs more than 100 µM; to `OCCC(F)(F)C(F)(F)C(F)(F)C(F)(F)F` [4:2 Fluorotelomer alcohol], more than 100 µM; to `O=S(=O)(O)CCC(F)(F)C(F)(F)C(F)(F)C(F)(F)F` [4:2 Fluorotelomer sulfonic acid], more than 100 µM.
The same measure, in the same setting: as for `OCC(F)(F)C(F)(F)C(F)(F)C(F)(F)C(F)(F)C(F)(F)F` [6:1 Fluorotelomer alcohol], the figure is more than 100 µM; as for `OCCC(F)(F)C(F)(F)C(F)(F)C(F)(F)C(F)(F)C(F)(F)F` [6:2 Fluorotelomer alcohol], more than 100 µM.
Still for that read-out and setting: as for `O=S(=O)(O)CCC(F)(F)C(F)(F)C(F)(F)C(F)(F)C(F)(F)C(F)(F)F` [6:2 Fluorotelomer sulfonic acid], the figure is more than 100 µM.
The molecule `OCCC(F)(F)C(F)(F)C(F)(F)C(F)(F)C(F)(F)C(F)(F)C(F)(F)C(F)(F)F` [8:2 Fluorotelomer alcohol] had a POD vs vehicle of more than 100 µM.
Molecule `CN(CCO)S(=O)(=O)C(F)(F)C(F)(F)C(F)(F)C(F)(F)C(F)(F)C(F)(F)C(F)(F)C(F)(F)F` [N-Methyl-N-(2-hydroxyethyl)perfluorooctanesulfonamide] had a POD vs vehicle of more than 100 µM.

The test system of the next assay is 1535 (donor line of iPSC-derived cardiomyocytes). Described as above. The settings on record: exposure time: 90 min. On the procedure:
as §1
`NC(=O)C(F)(F)C(F)(F)C(F)(F)C(F)F` registered a POD vs vehicle of more than 100 µM.
The molecule `OCC(O)CC(F)(F)C(F)(F)C(F)(F)C(F)(F)C(F)(F)C(F)(F)C(F)(F)C(F)(F)F` (stereo not given) [1-(Perfluorofluorooctyl)propane-2,3-diol] displayed a POD vs vehicle of more than 100 µM.
`CC(O)C(F)(F)C(F)(F)F` (stereo not given) [1-Pentafluoroethylethanol] displayed a POD vs vehicle of more than 100 µM.
As for `OCC(F)(F)C(F)(F)C(F)(F)C(F)F` [1H,1H,5H-Perfluoropentanol], the POD vs vehicle was more than 100 µM.
The same measure, in the same setting: to `O=S(=O)(OCC(F)(F)F)C(F)(F)C(F)(F)C(F)(F)C(F)(F)F` [2,2,2-Trifluoroethyl_perfluorobutanesulfonate] belongs more than 100 µM.
The same measure, in the same setting: to `O=C(O)C(F)(F)C(F)(F)C(F)F` [2,2,3,3,4,4-Hexafluorobutanoic_acid] belongs more than 100 µM; to `NC(O)(C(F)(F)F)C(F)(F)F` [2-Aminohexafluoropropan-2-ol], more than 100 µM; to `O=C(O)CCC(F)(F)C(F)(F)C(F)(F)C(F)(F)C(F)(F)F` [2H,2H,3H,3H-Perfluorooctanoic_acid], more than 100 µM.
Still for that read-out and setting: as for `O=C(O)C=C(C(F)(F)F)C(F)(F)F` [3,3-Bis(trifluoromethyl)-2-propenoic_acid], the figure is more than 100 µM; as for `O=C(O)C=CC(F)(C(F)(F)F)C(F)(F)F` [3-(Perfluoroisopropyl)-2-propenoic_acid], more than 100 µM.
For `O=C(O)CCC(F)(F)C(F)(F)C(F)(F)C(F)(F)C(F)(F)C(F)(F)C(F)(F)F` [3-Perfluoroheptylpropanoic_acid], the POD vs vehicle is more than 100 µM.
`O=C(O)CCC(F)(F)C(F)(F)C(F)(F)F` [3:3 Fluorotelomer carboxylic acid] gave a POD vs vehicle of more than 100 µM.
On the same count and under the same terms, as for `O=C(CC(=O)C(F)(F)C(F)(F)F)C(F)(F)F` [3H,3H-Perfluoro-2,4-hexanedione], the figure is more than 100 µM; as for `OCCC(F)(F)C(F)(F)C(F)(F)C(F)(F)F` [4:2 Fluorotelomer alcohol], more than 100 µM.
The same measure, in the same setting: as for `O=S(=O)(O)CCC(F)(F)C(F)(F)C(F)(F)C(F)(F)F` [4:2 Fluorotelomer sulfonic acid], the figure is more than 100 µM.
Still for that read-out and setting: to `OCC(F)(F)C(F)(F)C(F)(F)C(F)(F)C(F)(F)C(F)(F)F` [6:1 Fluorotelomer alcohol] belongs more than 100 µM.
With `OCCC(F)(F)C(F)(F)C(F)(F)C(F)(F)C(F)(F)C(F)(F)F` [6:2 Fluorotelomer alcohol], the POD vs vehicle is more than 100 µM.
Same read-out and setting: to `O=S(=O)(O)CCC(F)(F)C(F)(F)C(F)(F)C(F)(F)C(F)(F)C(F)(F)F` [6:2 Fluorotelomer sulfonic acid] belongs more than 100 µM; to `OCCC(F)(F)C(F)(F)C(F)(F)C(F)(F)C(F)(F)C(F)(F)C(F)(F)C(F)(F)F` [8:2 Fluorotelomer alcohol], more than 100 µM.
Still for that read-out and setting: to `CN(CCO)S(=O)(=O)C(F)(F)C(F)(F)C(F)(F)C(F)(F)C(F)(F)C(F)(F)C(F)(F)C(F)(F)F` [N-Methyl-N-(2-hydroxyethyl)perfluorooctanesulfonamide] belongs more than 100 µM.

The test system of the next assay is 1518 (donor line of iPSC-derived cardiomyocytes). The description is as above. The settings on record: exposure time: 90 min. On the procedure: as §1
In the case of `NC(=O)C(F)(F)C(F)(F)C(F)(F)C(F)F`, the POD vs vehicle is more than 100 µM.
On the same count and under the same terms, as for `OCC(O)CC(F)(F)C(F)(F)C(F)(F)C(F)(F)C(F)(F)C(F)(F)C(F)(F)C(F)(F)F` (stereo not given) [1-(Perfluorofluorooctyl)propane-2,3-diol], the figure is more than 100 µM; as for `CC(O)C(F)(F)C(F)(F)F` (stereo not given) [1-Pentafluoroethylethanol], more than 100 µM; as for `OCC(F)(F)C(F)(F)C(F)(F)C(F)F` [1H,1H,5H-Perfluoropentanol], more than 100 µM.
The same measure, in the same setting: as for `O=S(=O)(OCC(F)(F)F)C(F)(F)C(F)(F)C(F)(F)C(F)(F)F` [2,2,2-Trifluoroethyl_perfluorobutanesulfonate], the figure is more than 100 µM; as for `O=C(O)C(F)(F)C(F)(F)C(F)F` [2,2,3,3,4,4-Hexafluorobutanoic_acid], more than 100 µM; as for `NC(O)(C(F)(F)F)C(F)(F)F` [2-Aminohexafluoropropan-2-ol], more than 100 µM.
Same read-out and setting: to `O=C(O)CCC(F)(F)C(F)(F)C(F)(F)C(F)(F)C(F)(F)F` [2H,2H,3H,3H-Perfluorooctanoic_acid] belongs more than 100 µM; to `O=C(O)C=C(C(F)(F)F)C(F)(F)F` [3,3-Bis(trifluoromethyl)-2-propenoic_acid], more than 100 µM.
